# Reference: patent US20120171274A1, “TRANSDERMAL PATCH” (priority 2006, published 2012)
# Key:
# Assay type in all cases: physicochemical
# [1] = Solvency of the active substance in monomer (visual inspection); parameters: key: Excellent: The active substance was not found to have been precipitated in the solution of active substance both immediately after the preparation and after the preservation for 7 days.; Good: The active substance was found to have been precipitated in the solution of active substance immediately after the preparation, but the active substance was not found to have been precipitated in the solution of active substance after the preservation for 7 days.; Poor: The active substance was found to have been precipitated in the solution of active substance both immediately after the preparation and after the preservation for 7 days; conditions: 3 parts active substance per 100 parts monomer, 25° C., 7 days
# [2] = Residual rate of the active substance in monomer solution (HPLC); conditions: for Residual Rate of active substance, Immediately after Preparation: 3 parts per 100 parts monomer; for Residual Rate of active substance, after 7 Days: preserved at 25° C. for 7 days
# [3] = Solvency of DMAE in fatty acid ester or additive; conditions: 50 parts DMAE in 950 parts, 25° C.
# Protocol: When a crystal of DMAE was precipitated […], and when a crystal of DMAE was not precipitated, the solvency was evaluated to be “poor”.
# [4] = Solubility of DMAE at 25° C. (HPLC); conditions: g per 100 g of solvent
# [5] = monomer: 2-Ethylhexyl Methacrylate
compound,measurement,setting,value
"CC(C)(C)NCC(O)c1ccccc1Cl (stereo not shown) [TB, tulobuterol]",Solvency of active substance,[1]; monomer: 1-Vinyl-2-Pyrrolidone,Excellent
same,Solvency of active substance,[1]; monomer: 2-Ethylhexyl Acrylate,Excellent
same,Solvency of active substance,[1]; [5],Excellent
same,Solvency of active substance,[1]; monomer: Acrylic Acid,Excellent
same,Solvency of active substance,[1]; monomer: Butyl Acrylate,Excellent
same,Solvency of active substance,[1]; monomer: Butyl Methacrylate,Excellent
same,Solvency of active substance,[1]; monomer: Dodecyl Methacrylate,Good
same,Solvency of active substance,[1]; monomer: Ethyl Acrylate,Excellent
same,"Residual Rate of active substance, Immediately after Preparation",[2]; monomer: 1-Vinyl-2-Pyrrolidone,100 % by weight
same,"Residual Rate of active substance, after 7 Days",[2]; monomer: 1-Vinyl-2-Pyrrolidone,100 % by weight
same,"Residual Rate of active substance, Immediately after Preparation",[2]; monomer: 2-Ethylhexyl Acrylate,100 % by weight
same,"Residual Rate of active substance, after 7 Days",[2]; monomer: 2-Ethylhexyl Acrylate,88 % by weight
same,"Residual Rate of active substance, Immediately after Preparation",[2]; [5],100 % by weight
same,"Residual Rate of active substance, after 7 Days",[2]; [5],100 % by weight
same,"Residual Rate of active substance, Immediately after Preparation",[2]; monomer: Acrylic Acid,100 % by weight
same,"Residual Rate of active substance, after 7 Days",[2]; monomer: Acrylic Acid,96 % by weight
same,"Residual Rate of active substance, Immediately after Preparation",[2]; monomer: Butyl Acrylate,100 % by weight
same,"Residual Rate of active substance, after 7 Days",[2]; monomer: Butyl Acrylate,81 % by weight
same,"Residual Rate of active substance, Immediately after Preparation",[2]; monomer: Butyl Methacrylate,100 % by weight
same,"Residual Rate of active substance, after 7 Days",[2]; monomer: Butyl Methacrylate,100 % by weight
same,"Residual Rate of active substance, Immediately after Preparation",[2]; monomer: Dodecyl Methacrylate,100 % by weight
same,"Residual Rate of active substance, after 7 Days",[2]; monomer: Dodecyl Methacrylate,100 % by weight
same,"Residual Rate of active substance, Immediately after Preparation",[2]; monomer: Ethyl Acrylate,100 % by weight
same,"Residual Rate of active substance, after 7 Days",[2]; monomer: Ethyl Acrylate,70 % by weight
"COc1ccc(OC)c(C(O)CN)c1 (stereo not shown) [DMAE, 2-amino-1-(2′,5′-dimethoxyphenyl)ethanol]",Solvency of active substance,[1]; monomer: 1-Vinyl-2-Pyrrolidone,Poor
same,Solvency of active substance,[1]; monomer: 2-Ethylhexyl Acrylate,Poor
same,Solvency of active substance,[1]; [5],Poor
same,Solvency of active substance,[1]; monomer: Acrylic Acid,Excellent
same,Solvency of active substance,[1]; monomer: Butyl Acrylate,Good
same,Solvency of active substance,[1]; monomer: Butyl Methacrylate,Poor
same,Solvency of active substance,[1]; monomer: Dodecyl Methacrylate,Poor
same,Solvency of active substance,[1]; monomer: Ethyl Acrylate,Excellent
same,"Residual Rate of active substance, Immediately after Preparation",[2]; monomer: 1-Vinyl-2-Pyrrolidone,100 % by weight
same,"Residual Rate of active substance, after 7 Days",[2]; monomer: 1-Vinyl-2-Pyrrolidone,100 % by weight
same,"Residual Rate of active substance, Immediately after Preparation",[2]; monomer: 2-Ethylhexyl Acrylate,39 % by weight
same,"Residual Rate of active substance, after 7 Days",[2]; monomer: 2-Ethylhexyl Acrylate,11 % by weight
same,"Residual Rate of active substance, Immediately after Preparation",[2]; [5],99 % by weight
same,"Residual Rate of active substance, after 7 Days",[2]; [5],99 % by weight
same,"Residual Rate of active substance, Immediately after Preparation",[2]; monomer: Acrylic Acid,99 % by weight
same,"Residual Rate of active substance, after 7 Days",[2]; monomer: Acrylic Acid,97 % by weight
same,"Residual Rate of active substance, Immediately after Preparation",[2]; monomer: Butyl Acrylate,27 % by weight
same,"Residual Rate of active substance, Immediately after Preparation",[2]; monomer: Butyl Methacrylate,98 % by weight
same,"Residual Rate of active substance, after 7 Days",[2]; monomer: Butyl Methacrylate,98 % by weight
same,"Residual Rate of active substance, Immediately after Preparation",[2]; monomer: Dodecyl Methacrylate,100 % by weight
same,"Residual Rate of active substance, after 7 Days",[2]; monomer: Dodecyl Methacrylate,99 % by weight
same,Solvency of DMAE,[3]; solvent Butylene Glycol,Poor
same,Solvency of DMAE,[3]; solvent Diethyl Sebacate,Excellent
same,Solvency of DMAE,[3]; solvent Hexyl Laurate,Excellent
same,Solvency of DMAE,[3]; solvent Isopropyl Myristate,Excellent
same,Solvency of DMAE,[3]; solvent Isopropyl Palmitate,Excellent
same,Solvency of DMAE,[3]; solvent Isostearic Acid,Poor
same,Solvency of DMAE,[3]; solvent Liquid Paraffin,Excellent
same,Solvency of DMAE,[3]; solvent Medium-chain Triglyceride,Excellent
same,Solvency of DMAE,[3]; solvent Monoethanolamine,Poor
same,Solvency of DMAE,[3]; solvent Octanediol,Poor
same,Solvency of DMAE,[3]; solvent Octyldodecyl Myristate,Excellent
same,Solvency of DMAE,[3]; solvent Oleic Acid,Excellent
same,Solvency of DMAE,[3]; solvent Oleyl Alcohol,Excellent
same,Solvency of DMAE,[3]; solvent Polyoxyethylene (2) Lauryl Ether,Excellent
same,Solvency of DMAE,[3]; solvent Propylene Glycol,Poor
same,Solvency of DMAE,[3]; solvent Squalane,Excellent
same,Solvency of DMAE,[3]; solvent Triacetin,Poor
same,Solubility of DMAE,[4]; in Diethyl Sebacate,0.9 g
same,Solubility of DMAE,[4]; in Hexyl Laurate,0.2 g
same,Solubility of DMAE,[4]; in Isopropyl Myristate,0.2 g
same,Solubility of DMAE,[4]; in Isopropyl Palmitate,0.2 g
same,Solubility of DMAE,[4]; in Liquid Paraffin,0.02 g
same,Solubility of DMAE,[4]; in Medium-chain Triglyceride,0.3 g
same,Solubility of DMAE,[4]; in Octyldodecyl Myristate,0.05 g
same,Solubility of DMAE,[4]; in Oleic Acid,3.7 g
same,Solubility of DMAE,[4]; in Oleyl Alcohol,2.5 g
same,Solubility of DMAE,[4]; in Polyoxyethylene (2) Lauryl Ether,3.7 g
same,Solubility of DMAE,[4]; in Squalane,0.01 g
"O=[N+]([O-])O[C@H]1CO[C@H]2[C@@H]1OC[C@H]2O[N+](=O)[O-] [ISDN, isosorbide dinitrate]",Solvency of active substance,[1]; monomer: 1-Vinyl-2-Pyrrolidone,Excellent
same,Solvency of active substance,[1]; monomer: 2-Ethylhexyl Acrylate,Excellent
same,Solvency of active substance,[1]; [5],Excellent
same,Solvency of active substance,[1]; monomer: Acrylic Acid,Excellent
same,Solvency of active substance,[1]; monomer: Butyl Acrylate,Excellent
same,Solvency of active substance,[1]; monomer: Butyl Methacrylate,Excellent
same,Solvency of active substance,[1]; monomer: Dodecyl Methacrylate,Excellent
same,Solvency of active substance,[1]; monomer: Ethyl Acrylate,Excellent
same,"Residual Rate of active substance, Immediately after Preparation",[2]; monomer: 1-Vinyl-2-Pyrrolidone,100 % by weight
same,"Residual Rate of active substance, after 7 Days",[2]; monomer: 1-Vinyl-2-Pyrrolidone,100 % by weight
same,"Residual Rate of active substance, Immediately after Preparation",[2]; monomer: 2-Ethylhexyl Acrylate,100 % by weight
same,"Residual Rate of active substance, after 7 Days",[2]; monomer: 2-Ethylhexyl Acrylate,100 % by weight
same,"Residual Rate of active substance, Immediately after Preparation",[2]; [5],100 % by weight
same,"Residual Rate of active substance, after 7 Days",[2]; [5],99 % by weight
same,"Residual Rate of active substance, Immediately after Preparation",[2]; monomer: Acrylic Acid,100 % by weight
same,"Residual Rate of active substance, after 7 Days",[2]; monomer: Acrylic Acid,100 % by weight
same,"Residual Rate of active substance, Immediately after Preparation",[2]; monomer: Butyl Acrylate,100 % by weight
same,"Residual Rate of active substance, after 7 Days",[2]; monomer: Butyl Acrylate,100 % by weight
same,"Residual Rate of active substance, Immediately after Preparation",[2]; monomer: Butyl Methacrylate,100 % by weight
same,"Residual Rate of active substance, after 7 Days",[2]; monomer: Butyl Methacrylate,100 % by weight
same,"Residual Rate of active substance, Immediately after Preparation",[2]; monomer: Dodecyl Methacrylate,100 % by weight
same,"Residual Rate of active substance, after 7 Days",[2]; monomer: Dodecyl Methacrylate,100 % by weight
same,"Residual Rate of active substance, Immediately after Preparation",[2]; monomer: Ethyl Acrylate,100 % by weight
same,"Residual Rate of active substance, after 7 Days",[2]; monomer: Ethyl Acrylate,100 % by weight
"COc1ccc2c(c1)c(CC(=O)O)c(C)n2C(=O)c1ccc(Cl)cc1 [IMT, indomethacin]",Solvency of active substance,[1]; monomer: 1-Vinyl-2-Pyrrolidone,Excellent
same,Solvency of active substance,[1]; monomer: 2-Ethylhexyl Acrylate,Poor
same,Solvency of active substance,[1]; [5],Poor
same,Solvency of active substance,[1]; monomer: Acrylic Acid,Excellent
same,Solvency of active substance,[1]; monomer: Butyl Acrylate,Poor
same,Solvency of active substance,[1]; monomer: Butyl Methacrylate,Poor
same,Solvency of active substance,[1]; monomer: Dodecyl Methacrylate,Poor
same,Solvency of active substance,[1]; monomer: Ethyl Acrylate,Poor
same,"Residual Rate of active substance, Immediately after Preparation",[2]; monomer: 1-Vinyl-2-Pyrrolidone,100 % by weight
same,"Residual Rate of active substance, after 7 Days",[2]; monomer: 1-Vinyl-2-Pyrrolidone,100 % by weight
same,"Residual Rate of active substance, Immediately after Preparation",[2]; monomer: 2-Ethylhexyl Acrylate,100 % by weight
same,"Residual Rate of active substance, after 7 Days",[2]; monomer: 2-Ethylhexyl Acrylate,100 % by weight
same,"Residual Rate of active substance, Immediately after Preparation",[2]; [5],100 % by weight
same,"Residual Rate of active substance, after 7 Days",[2]; [5],100 % by weight
same,"Residual Rate of active substance, Immediately after Preparation",[2]; monomer: Acrylic Acid,100 % by weight
same,"Residual Rate of active substance, after 7 Days",[2]; monomer: Acrylic Acid,100 % by weight
same,"Residual Rate of active substance, Immediately after Preparation",[2]; monomer: Butyl Acrylate,100 % by weight
same,"Residual Rate of active substance, after 7 Days",[2]; monomer: Butyl Acrylate,100 % by weight
same,"Residual Rate of active substance, Immediately after Preparation",[2]; monomer: Butyl Methacrylate,100 % by weight
same,"Residual Rate of active substance, after 7 Days",[2]; monomer: Butyl Methacrylate,99 % by weight
same,"Residual Rate of active substance, Immediately after Preparation",[2]; monomer: Dodecyl Methacrylate,100 % by weight
same,"Residual Rate of active substance, after 7 Days",[2]; monomer: Dodecyl Methacrylate,100 % by weight
same,"Residual Rate of active substance, Immediately after Preparation",[2]; monomer: Ethyl Acrylate,100 % by weight
same,"Residual Rate of active substance, after 7 Days",[2]; monomer: Ethyl Acrylate,99 % by weight
